Assay results published in patent publication US11413281B2, “Ternary conjugate of antitumor drug, and synthesis and application” (priority 2016, dated 2022).
Where no end group is shown, it is not given here.

Key:
leukemia cells (K562) = experiment: In vitro anti-tumor activity, MTT assay, K562; type: cell-based; conditions: Homo sapiens, K562, 48 h, read-out: K562 (IC50, μM)
Experimental: (§1) Preparation of MTT solution: MTT dry powder 0.5 g was dissolved in 100 mL PBS buffer, filtered and sterilized with a […] filter, and placed in a refrigerator at −12° C. for storage.
(§2) Three types of tumor cells used in the assay for antitumor activity are human hepatoma cells (HepG2), leukemia cells (K562) and human colon cancer cells (HCT116).
K562 cells were cultured in RPMI1640 cell culture medium containing 1% penicillin-streptomycin solution, 10% fetal bovine serum, and incubated at 37° C. in a constant temperature incubator containing 5% CO2. Specific steps:
The cells were counted using a hemocytometer and diluted to 5×10^4 cells/mL with RPMI medium;
100 μL of cell suspension was added to each well of a 96-well plate, incubated at 37° C. for 2 h.
(§3) The desired test compounds were diluted to 5 concentrations: 2 mM, 0.2 mM, 20 μM, 2 μM, 0.2 μM, and 0.5 μL/well was sequentially added according to the concentration, incubated at 37° C. for 48 h.
MTT was added at a concentration of 5 mg/mL, incubated at 37° C. for 4 hours.
Isopropanol and hydrochloric acid lysis were added, and the OD values at 570 nm and 630 nm were measured with a microplate reader.
(§4) Processing data, calculate IC50 value according to OD value.

[1] = tested on: human colon cancer cells (HCT116); experiment: In vitro anti-tumor activity, MTT assay, HCT116; type: cell-based; conditions: HCT-116, 48 h, read-out: HCT116 (IC50, μM)
Experimental: Preparation of DMEM/F-12 culture broth: HyClone MEM/F-12 medium, 500 mL per bottle, add 10% fetal bovine serum and 1% solution of penicillin, stored in a refrigerator at 4° C.
as §1, §2
Human colon cancer cell HCT116 test
The culture fluid used for HCT116 cells was a DMEM/F-12 cell culture solution containing 1% penicillin-streptomycin solution, 10% fetal bovine serum. Specific steps:
The cells were counted using a hemocytometer and diluted with DMEM/F-12 medium to 5×10^4 cells/mL.
(§5) Add 100 μL of cell suspension to each well of a 96-well plate, mix, incubated at 37° C. for 24 h.
as §3
(§6) MTT was added at a concentration of 5 mg/mL, incubated at 37° C. for 4 h.
Cells were lysed by addition of DMSO, and the OD values at 490 nm and 630 nm were measured with a microplate reader.
as §4

[2] = tested on: human hepatoma cells (HepG2); experiment: In vitro anti-tumor activity, MTT assay, HepG2; type: cell-based; conditions: HepG2, 48 h, read-out: HepG2 (IC50, μM)
Experimental: Formulation of DMEM low glucose medium: HyClone MEM low glucose medium, 500 mL per bottle, add 10% fetal bovine serum and 1% solution of penicillin, stored in a refrigerator at 4° C.
as §1, §2
Human Hepatocarcinoma Cell (HepG2) Test
The culture medium for HepG2 cells was DMEM cell culture medium containing 1% penicillin-streptomycin solution and 10% fetal bovine serum, and the culture condition was 37° C. and a constant temperature incubator containing 5% CO2. Specific steps:
The cells were counted using a hemocytometer and diluted with DMEM low glucose to 5×10^4 cells/mL.
as §5, §3, §6
Cells were lysed by addition of DMSO, and the OD values at 490 nm and 630 nm were measured with a microplate reader. […]

[3] = tested on: E-selectin mediated adhesion of THP-I to HUVECs; experiment: Adhesion test of human acute monocytic leukemia cells and endothelial cells; type: cell-based; conditions: THP-I on TNF-α stimulated HUVECs, FIG. 4
Experimental: Example 3. Adhesion Test of Compounds Against Human Acute Monocytic Leukemia Cells and Endothelial Cells
Endothelial cell line HUVEC and human acute monocytic leukemia cell line THP-I were purchased from ATCC and cultured at 37° C. in a 5% CO2 saturated humidity medium, which contains 10% fetal bovine serum, RPMI 1640 with 100 μg/mL penicillin and F-12 with 100 μg/mL streptomycin, the cells were used at logarithmic growth phase.
Polylysine (20 μg/ml) (Shanghai Yuanye Biotechnology Co., Ltd.) was coated on a black 96-well cell culture plate (Corning Incorporated costar 3603) and incubated at 37° C. for 12 h. Endothelial cells HUVECs were seeded at a concentration of […] in black 96-well cell culture plates. After incubation at 37° C. for 36 h, the medium in the cell culture plates was removed. The experimental group was added with F-12 medium with 20 ng/ml TNF-α, F-12 medium without TNF-α was added to the control group, all the groups were incubated for 6 h at 37° C. […] 100 μl permeation solution (BIOSHARP) was added to each well and fluorescence was measured with a Synergy 4 Multiplate Reader (Biotek) (Ex, 485 nm; Em, 528 nm). The inhibitory effect of the candidate compound is inversely proportional to the fluorescence intensity, and the lower the fluorescence value, the stronger the inhibition effect of the compound.

[4] = Self-assembly in aqueous solution (proton NMR in DMSO-d6 vs D2O); type: physicochemical; conditions: HCPT NMR signals disappear in D2O
Description: The micelles enclose the hydrophobic structure inside. […] This phenomenon also exists in the conjugate of PEG and HCPT, and it is confirmed by dynamic light scattering and transmission electron microscopy, which showing it can form nanospheres or nanorods with about 200 nm diameter.

Compound | IC50 (leukemia cells (K562)) | IC50 [1] | IC50 [2] | anti-E-selectin mediated cell adhesion in vitro [3] | self-assembly in aqueous solution [4]
CC[C@@]1(O)C(=O)OCc2c1cc1n(c2=O)Cc2cc3cc(O)ccc3nc2-1 [HCPT, 10-hydroxycamptothecin] | < 1 µM | < 1 µM | < 1 µM | – | –
Compound 9 (CIELLQAR-OH; also: Cys1 connects to remainder of compound 9 through SH and amino group) | – | – | – | significant anti-E-selectin mediated cell adhesion | self-assembled into nano-micelles
